The values below come from ChEMBL document CHEMBL1909046, “DrugMatrix in vitro pharmacology data”.

SMILES strings stand for the structures.
Note: in other assays of this panel Not Active means under 50% inhibition at 10 µM.

Sequence of Cytochrome P450 2D6 (P10635 whole entry): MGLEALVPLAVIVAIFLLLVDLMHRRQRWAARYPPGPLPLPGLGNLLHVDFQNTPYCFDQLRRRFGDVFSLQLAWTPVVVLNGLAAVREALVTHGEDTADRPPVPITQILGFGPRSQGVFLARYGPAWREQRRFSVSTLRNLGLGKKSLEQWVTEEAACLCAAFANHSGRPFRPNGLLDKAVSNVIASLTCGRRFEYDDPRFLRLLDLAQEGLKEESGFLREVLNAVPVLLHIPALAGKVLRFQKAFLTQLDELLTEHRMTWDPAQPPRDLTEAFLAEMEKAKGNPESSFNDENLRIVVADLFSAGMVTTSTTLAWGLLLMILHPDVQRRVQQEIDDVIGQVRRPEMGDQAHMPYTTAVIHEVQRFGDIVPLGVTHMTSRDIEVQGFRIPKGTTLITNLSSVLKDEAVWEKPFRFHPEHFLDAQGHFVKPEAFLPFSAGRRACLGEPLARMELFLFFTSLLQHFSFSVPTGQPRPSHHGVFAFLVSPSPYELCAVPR
Sequence of Cytochrome P450 2C9 (P11712 whole entry): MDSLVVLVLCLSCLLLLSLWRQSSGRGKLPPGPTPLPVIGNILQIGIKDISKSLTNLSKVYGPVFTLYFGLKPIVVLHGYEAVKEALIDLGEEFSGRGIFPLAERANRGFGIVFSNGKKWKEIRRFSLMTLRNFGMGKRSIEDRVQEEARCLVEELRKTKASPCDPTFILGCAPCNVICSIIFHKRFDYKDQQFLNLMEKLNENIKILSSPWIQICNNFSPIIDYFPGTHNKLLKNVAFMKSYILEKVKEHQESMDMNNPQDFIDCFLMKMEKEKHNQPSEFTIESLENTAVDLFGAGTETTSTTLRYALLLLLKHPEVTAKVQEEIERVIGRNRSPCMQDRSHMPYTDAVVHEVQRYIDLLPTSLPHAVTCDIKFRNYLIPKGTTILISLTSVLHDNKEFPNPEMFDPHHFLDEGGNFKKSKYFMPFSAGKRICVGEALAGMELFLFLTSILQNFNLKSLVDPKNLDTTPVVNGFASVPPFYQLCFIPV
Sequence of Cytochrome P450 2C19 (P33261 whole entry): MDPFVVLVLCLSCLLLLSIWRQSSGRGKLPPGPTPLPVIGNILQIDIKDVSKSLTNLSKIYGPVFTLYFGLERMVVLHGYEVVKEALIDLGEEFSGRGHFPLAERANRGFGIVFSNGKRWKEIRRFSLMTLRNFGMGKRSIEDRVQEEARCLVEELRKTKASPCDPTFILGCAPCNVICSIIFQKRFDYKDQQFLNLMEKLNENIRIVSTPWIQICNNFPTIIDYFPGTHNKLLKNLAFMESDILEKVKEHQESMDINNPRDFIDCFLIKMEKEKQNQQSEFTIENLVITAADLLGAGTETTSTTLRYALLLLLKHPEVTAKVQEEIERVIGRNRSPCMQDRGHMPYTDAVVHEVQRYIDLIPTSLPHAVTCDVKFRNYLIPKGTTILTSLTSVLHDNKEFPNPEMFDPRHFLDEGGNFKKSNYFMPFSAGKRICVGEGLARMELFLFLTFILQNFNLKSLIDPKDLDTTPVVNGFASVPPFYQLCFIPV

One data set concerns the target T1, Cytochrome P450 1A2 (Homo sapiens, UniProt P05177).
T1 sequence (P05177 whole entry): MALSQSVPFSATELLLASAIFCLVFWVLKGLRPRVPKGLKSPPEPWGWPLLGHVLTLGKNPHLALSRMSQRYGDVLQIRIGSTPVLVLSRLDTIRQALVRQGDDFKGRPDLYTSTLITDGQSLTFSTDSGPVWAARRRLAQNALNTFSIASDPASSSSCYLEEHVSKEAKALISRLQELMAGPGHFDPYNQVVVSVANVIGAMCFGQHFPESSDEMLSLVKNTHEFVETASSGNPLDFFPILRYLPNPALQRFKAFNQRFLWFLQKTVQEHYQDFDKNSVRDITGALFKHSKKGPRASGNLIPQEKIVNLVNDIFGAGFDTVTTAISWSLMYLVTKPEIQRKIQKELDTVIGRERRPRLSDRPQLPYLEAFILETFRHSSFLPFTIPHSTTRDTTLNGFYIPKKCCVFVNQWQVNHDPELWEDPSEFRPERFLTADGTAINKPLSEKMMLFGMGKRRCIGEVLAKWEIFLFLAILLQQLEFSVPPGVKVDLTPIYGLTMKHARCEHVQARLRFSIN
The note with it: bti-tn-5b1-4.
Turning to `CC(C)(C)NC(=O)[C@@H]1CN(Cc2cccnc2)CCN1C[C@@H](O)C[C@@H](Cc1ccccc1)C(=O)N[C@H]1c2ccccc2C[C@H]1O.O`, the IC50 entry is “Not Active” and the Ki entry is listed as “Not Active”.

For `COc1cc(C(=O)NC2CCCNC2)cc(OC)c1OC` (configuration not stated) [TROXIPIDE], the IC50 entry is “Not Active” and the Ki entry was “Not Active”.

With `NC(=O)c1ncn([C@@H]2O[C@H](CO)[C@@H](O)[C@H]2O)n1` [RIBAVIRIN], the IC50 result is reported as “Not Active” and the Ki result is recorded as “Not Active”.

As for `Nc1nnc(-c2cccc(Cl)c2Cl)c(N)n1` [LAMOTRIGINE], the IC50 entry was “Not Active” and the Ki result is reported as “Not Active”.

As to `O=C(CCCN1CCC(O)(c2ccc(Cl)cc2)CC1)c1ccc(F)cc1` [HALOPERIDOL], the IC50 entry was “Not Active” and the Ki result is “Not Active”.

With `CN1[C@@H]2CC[C@H]1C[C@@H](OC(=O)c1c[nH]c3ccccc13)C2` [TROPISETRON], the IC50 entry is on record as “Not Active” and the Ki entry is on record as “Not Active”.

As to `Clc1ccc(C(c2ccccc2Cl)C(Cl)Cl)cc1` (configuration not stated) [MITOTANE], the IC50 entry was “Not Active” and the Ki entry was “Not Active”.

`C[C@]12Cc3c[nH]nc3C[C@@H]1CC[C@@H]1[C@@H]2CC[C@@]2(C)[C@H]1CC[C@]2(C)O` [STANOZOLOL]: the IC50 result is reported as “Not Active” and the Ki result is recorded as “Not Active”.

For the next data set, the target named is T2, Type-2 angiotensin II receptor (Homo sapiens, UniProt P50052).
T2 sequence (P50052 whole entry): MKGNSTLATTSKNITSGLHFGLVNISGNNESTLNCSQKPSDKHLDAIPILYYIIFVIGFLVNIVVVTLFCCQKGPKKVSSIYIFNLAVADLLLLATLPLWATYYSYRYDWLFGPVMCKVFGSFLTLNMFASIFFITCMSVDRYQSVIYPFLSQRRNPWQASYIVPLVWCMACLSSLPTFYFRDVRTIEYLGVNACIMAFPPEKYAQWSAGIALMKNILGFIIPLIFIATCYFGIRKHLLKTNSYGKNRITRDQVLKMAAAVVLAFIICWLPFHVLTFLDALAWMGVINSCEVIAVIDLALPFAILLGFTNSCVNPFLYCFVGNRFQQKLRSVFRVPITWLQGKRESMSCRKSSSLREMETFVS
In kind it is cell-based. To be noted: cho-k1.
Take `CC(C)(C)NC(=O)[C@@H]1CN(Cc2cccnc2)CCN1C[C@@H](O)C[C@@H](Cc1ccccc1)C(=O)N[C@H]1c2ccccc2C[C@H]1O.O`: the IC50 result is “Not Active”.

In the case of `COc1cc(C(=O)NC2CCCNC2)cc(OC)c1OC` (configuration not stated) [TROXIPIDE], the IC50 entry was “Not Active”.

As for `NC(=O)c1ncn([C@@H]2O[C@H](CO)[C@@H](O)[C@H]2O)n1` [RIBAVIRIN], the IC50 result is given as “Not Active”.

`Nc1nnc(-c2cccc(Cl)c2Cl)c(N)n1` [LAMOTRIGINE]: the IC50 entry is on record as “Not Active”.

As for `O=C(CCCN1CCC(O)(c2ccc(Cl)cc2)CC1)c1ccc(F)cc1` [HALOPERIDOL], the IC50 result is reported as “Not Active”.

Take `CN1[C@@H]2CC[C@H]1C[C@@H](OC(=O)c1c[nH]c3ccccc13)C2` [TROPISETRON]: the IC50 result is reported as “Not Active”.

On to `Clc1ccc(C(c2ccccc2Cl)C(Cl)Cl)cc1` (configuration not stated) [MITOTANE], for which the IC50 entry is listed as “Not Active”.

With `C[C@]12Cc3c[nH]nc3C[C@@H]1CC[C@@H]1[C@@H]2CC[C@@]2(C)[C@H]1CC[C@]2(C)O` [STANOZOLOL], the IC50 entry is “Not Active”.

The next data set has as its target T3, Nitric oxide synthase, inducible (Mus musculus, UniProt P29477).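 Note: inhibition of iNOS enzyme activity measured with L-arginine as substrate.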
T3 sequence (P29477 whole entry): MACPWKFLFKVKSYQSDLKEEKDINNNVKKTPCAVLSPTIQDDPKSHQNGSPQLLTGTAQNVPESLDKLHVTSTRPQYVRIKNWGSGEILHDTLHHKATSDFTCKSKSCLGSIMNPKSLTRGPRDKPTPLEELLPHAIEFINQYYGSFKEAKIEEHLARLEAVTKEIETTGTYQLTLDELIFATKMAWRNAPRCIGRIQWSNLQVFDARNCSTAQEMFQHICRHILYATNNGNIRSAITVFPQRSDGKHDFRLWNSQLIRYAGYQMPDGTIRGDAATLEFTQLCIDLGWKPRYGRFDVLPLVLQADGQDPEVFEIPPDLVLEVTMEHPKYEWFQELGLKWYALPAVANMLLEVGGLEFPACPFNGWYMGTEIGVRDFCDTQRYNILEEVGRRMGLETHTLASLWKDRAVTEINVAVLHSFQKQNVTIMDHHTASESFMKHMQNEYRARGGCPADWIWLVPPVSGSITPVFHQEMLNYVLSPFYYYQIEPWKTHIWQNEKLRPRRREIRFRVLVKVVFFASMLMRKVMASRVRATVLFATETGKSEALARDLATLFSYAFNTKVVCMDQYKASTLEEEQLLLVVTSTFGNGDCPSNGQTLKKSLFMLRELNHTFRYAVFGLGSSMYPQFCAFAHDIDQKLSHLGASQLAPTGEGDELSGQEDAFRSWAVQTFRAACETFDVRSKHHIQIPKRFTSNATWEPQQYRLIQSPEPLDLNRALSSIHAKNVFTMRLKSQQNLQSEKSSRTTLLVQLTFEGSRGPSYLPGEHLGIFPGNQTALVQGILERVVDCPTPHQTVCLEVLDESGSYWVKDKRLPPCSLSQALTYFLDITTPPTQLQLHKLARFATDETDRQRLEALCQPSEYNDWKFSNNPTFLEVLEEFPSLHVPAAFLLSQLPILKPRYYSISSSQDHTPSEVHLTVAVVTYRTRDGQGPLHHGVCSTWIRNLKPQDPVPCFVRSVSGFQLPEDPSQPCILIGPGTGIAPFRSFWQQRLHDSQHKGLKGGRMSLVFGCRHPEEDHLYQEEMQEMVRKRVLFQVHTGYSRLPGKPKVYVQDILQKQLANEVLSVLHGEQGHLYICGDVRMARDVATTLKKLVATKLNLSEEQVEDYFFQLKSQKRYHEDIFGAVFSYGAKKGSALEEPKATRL
Also on record: species or system Escherichia coli.
Conditions: not given
As to `CC(C)(C)NC(=O)[C@@H]1CN(Cc2cccnc2)CCN1C[C@@H](O)C[C@@H](Cc1ccccc1)C(=O)N[C@H]1c2ccccc2C[C@H]1O.O`, the IC50 entry was “Not Active”.

As for `COc1cc(C(=O)NC2CCCNC2)cc(OC)c1OC` (configuration not stated) [TROXIPIDE], the IC50 entry is reported as “Not Active”.

For the compound `NC(=O)c1ncn([C@@H]2O[C@H](CO)[C@@H](O)[C@H]2O)n1` [RIBAVIRIN], the IC50 entry was “Not Active”.

Take `Nc1nnc(-c2cccc(Cl)c2Cl)c(N)n1` [LAMOTRIGINE]: the IC50 result is given as “Not Active”.

For `O=C(CCCN1CCC(O)(c2ccc(Cl)cc2)CC1)c1ccc(F)cc1` [HALOPERIDOL], the IC50 result is on record as “Not Active”.

As for `CN1[C@@H]2CC[C@H]1C[C@@H](OC(=O)c1c[nH]c3ccccc13)C2` [TROPISETRON], the IC50 entry was “Not Active”.

Regarding `Clc1ccc(C(c2ccccc2Cl)C(Cl)Cl)cc1` (configuration not stated) [MITOTANE], the IC50 entry is given as “Not Active”.

Turning to `C[C@]12Cc3c[nH]nc3C[C@@H]1CC[C@@H]1[C@@H]2CC[C@@]2(C)[C@H]1CC[C@]2(C)O` [STANOZOLOL], the IC50 entry is given as “Not Active”.

The next data set concerns the target Cytochrome P450 2C9 (Homo sapiens, UniProt P11712). To be noted: bti-tn-5b1-4.
As for `CC(C)(C)NC(=O)[C@@H]1CN(Cc2cccnc2)CCN1C[C@@H](O)C[C@@H](Cc1ccccc1)C(=O)N[C@H]1c2ccccc2C[C@H]1O.O`, the IC50 result was “Not Active” and the Ki entry is on record as “Not Active”.

For the compound `COc1cc(C(=O)NC2CCCNC2)cc(OC)c1OC` (configuration not stated) [TROXIPIDE], the IC50 entry was “Not Active” and the Ki result is listed as “Not Active”.

As to `Nc1nnc(-c2cccc(Cl)c2Cl)c(N)n1` [LAMOTRIGINE], the IC50 entry is recorded as “Not Active” and the Ki entry is “Not Active”.

Consider `O=C(CCCN1CCC(O)(c2ccc(Cl)cc2)CC1)c1ccc(F)cc1` [HALOPERIDOL], for which the IC50 result is recorded as “Not Active” and the Ki entry was “Not Active”.

On to `CN1[C@@H]2CC[C@H]1C[C@@H](OC(=O)c1c[nH]c3ccccc13)C2` [TROPISETRON], for which the IC50 entry was “Not Active” and the Ki result is “Not Active”.

Take `Clc1ccc(C(c2ccccc2Cl)C(Cl)Cl)cc1` (configuration not stated) [MITOTANE]: the IC50 entry was “Not Active” and the Ki result was “Not Active”.

A further data set addresses Cytochrome P450 2C19 (Homo sapiens, UniProt P33261). The note with it: bti-tn-5b1-4.
Turning to `CC(C)(C)NC(=O)[C@@H]1CN(Cc2cccnc2)CCN1C[C@@H](O)C[C@@H](Cc1ccccc1)C(=O)N[C@H]1c2ccccc2C[C@H]1O.O`, the IC50 entry is listed as “Not Active” and the Ki entry is “Not Active”.

Consider `COc1cc(C(=O)NC2CCCNC2)cc(OC)c1OC` (configuration not stated) [TROXIPIDE], for which the IC50 result was “Not Active” and the Ki result is reported as “Not Active”.

For `NC(=O)c1ncn([C@@H]2O[C@H](CO)[C@@H](O)[C@H]2O)n1` [RIBAVIRIN], the IC50 result is listed as “Not Active” and the Ki entry is on record as “Not Active”.

Regarding `Nc1nnc(-c2cccc(Cl)c2Cl)c(N)n1` [LAMOTRIGINE], the IC50 result was “Not Active” and the Ki result is given as “Not Active”.

As for `O=C(CCCN1CCC(O)(c2ccc(Cl)cc2)CC1)c1ccc(F)cc1` [HALOPERIDOL], the IC50 result is reported as “Not Active” and the Ki entry is on record as “Not Active”.

On to `CN1[C@@H]2CC[C@H]1C[C@@H](OC(=O)c1c[nH]c3ccccc13)C2` [TROPISETRON], for which the IC50 entry is “Not Active” and the Ki entry is recorded as “Not Active”.

For `Clc1ccc(C(c2ccccc2Cl)C(Cl)Cl)cc1` (configuration not stated) [MITOTANE], the IC50 result is recorded as “Not Active” and the Ki result was “Not Active”.

Another data set addresses Cytochrome P450 2D6 (Homo sapiens, UniProt P10635). To be noted: bti-tn-5b1-4.
As for `CC(C)(C)NC(=O)[C@@H]1CN(Cc2cccnc2)CCN1C[C@@H](O)C[C@@H](Cc1ccccc1)C(=O)N[C@H]1c2ccccc2C[C@H]1O.O`, the IC50 entry is reported as “Not Active” and the Ki entry is recorded as “Not Active”.

With `COc1cc(C(=O)NC2CCCNC2)cc(OC)c1OC` (configuration not stated) [TROXIPIDE], the IC50 result is “Not Active” and the Ki result is “Not Active”.

As to `NC(=O)c1ncn([C@@H]2O[C@H](CO)[C@@H](O)[C@H]2O)n1` [RIBAVIRIN], the IC50 entry was “Not Active” and the Ki result is listed as “Not Active”.

As for `Nc1nnc(-c2cccc(Cl)c2Cl)c(N)n1` [LAMOTRIGINE], the IC50 entry was “Not Active” and the Ki entry is recorded as “Not Active”.

In the case of `O=C(CCCN1CCC(O)(c2ccc(Cl)cc2)CC1)c1ccc(F)cc1` [HALOPERIDOL], the IC50 result was “Not Active” and the Ki result is “Not Active”.

With `CN1[C@@H]2CC[C@H]1C[C@@H](OC(=O)c1c[nH]c3ccccc13)C2` [TROPISETRON], the IC50 entry is listed as “Not Active” and the Ki entry is listed as “Not Active”.

For the compound `Clc1ccc(C(c2ccccc2Cl)C(Cl)Cl)cc1` (configuration not stated) [MITOTANE], the IC50 result is on record as “Not Active” and the Ki entry was “Not Active”.
